In patent US9968627B2 (Celgene Corporation, priority 2013, dated 2018):
≈ marks a conversion by molar mass, not a printed value.

What was measured:
[1] = Solubility of 5-azacytidine in various solvents at ambient temperature (visual, solvent aliquot addition); format: physicochemical; settings: thermodynamic from solid
Procedure: Solubility was estimated by treating a weighed sample of 5-azacytidine with measured aliquots of the test solvent at ambient temperature, with shaking and/or sonication between aliquots. Dissolution was determined by visual inspection. Solubility numbers were calculated by dividing the […]. The actual solubilities may be greater than the numbers calculated because of the use of solvent aliquots that were too large or because of slow dissolution rates. […] The solubility number is expressed as “greater than” if dissolution occurred on addition of the first solvent aliquot.

[2] = system: subjects with higher-risk MDS; settings: Phase III study, administered subcutaneously; cited from earlier work

In the case of `Nc1ncn([C@@H]2O[C@H](CO)[C@@H](O)[C@H]2O)c(=O)n1` [5-azacytidine, 4-amino-1-β-D-ribofuranosyl-1,3,5-triazin-2(1H)-one], the solubility ([1]; 1:1 methanol/water, aqueous with cosolvent or surfactant or cyclodextrin, 1:1 methanol/water) is reported as 2800 µg/mL (≈ 11.5 mM), the solubility ([1]; 1:2 methanol/water, aqueous with cosolvent or surfactant or cyclodextrin, 1:2 methanol/water) is reported as 3100 µg/mL (≈ 12.7 mM) and the solubility ([1]; 1:2 methanol/water, aqueous with cosolvent or surfactant or cyclodextrin, 1:2 methanol/water (second line printed with this solvent)) is reported as 4600 µg/mL (≈ 18.8 mM). The solubility ([1]; DMF, organic solvent or mixture) was 1700 µg/mL (≈ 6.96 mM), the solubility ([1]; DMSO, organic solvent or mixture) was 2200 µg/mL (≈ 9.01 mM) and the “Survival and time to AML transformation or death” value [2] was “significantly prolonged survival and time to AML transformation or death”.
